Where a name gives a salt, the structure may show the parent alone. Read-outs that look alike come from different tables or passages of the source. Ends that are not written are not given here.
How the values were obtained:
[1] = cited from earlier work
[2] = cited from earlier work; remark: listed apart in the source
rat brain = assay: Endovascular brain mapping: dye or embolic agent infused into the internal carotid artery, brains harvested to examine staining quality; type: in vivo, Sprague Dawley rats; settings: ICA infusion after blood brain barrier disruption with arabinose, dye mixed with Omnipaque
Protocol: Generally, Sprague Dawley rats were anesthetized and vascular access obtained by ventral cervical cutdown. A catheter was introduced into the common carotid artery proximal to the ICA. All other branches were clamped temporarily with aneurysm clips, permitting flow to the ICA alone. The blood brain barrier was disrupted with a solution of arabinose. […] Tantalum powder was also tested without blood brain barrier disruption. The brains were harvested for examination of the quality of staining.
Using a carotid cutdown method, the CCA was exposed and a catheter was introduced into the lumen proximal to the ICA. A ligature secured the catheter within the vessel. The external carotid artery and occipital artery were clamped, preserving flow to the ICA.
To test the use of tantalum powder, the same procedure described above was performed without disruption of the blood brain barrier. A small amount of tantalum powder suspension was then injected under fluoroscopic visualization until the right hemispheric distribution was opacified.

[3] = chronic subcutaneous injections; cited from earlier work
brain parenchyma = settings: awake patient, intra-arterial infusion; cited from earlier work
[4] = Table 3, solvent or buffer named
[5] = Table 1, medium in which the fluorophore is solubilised

In the case of “FLUO-RRLSYSRRRF (not fully specified (N-terminus); printed as FLUO-RRLSYSRRRF) [FLUO-L-SynB3]”, the Solubility [1, 4] is listed as “PBS”.
For carboxymethyl-β-cyclodextrin [CM-β-CD], the solubility in water [2] is given as 50 mg/mL.
In the case of `CCN(Cc1cccc(S(=O)(=O)[O-])c1)c1ccc(C(=C2C=CC(=[N+](CC)Cc3cccc(S(=O)(=O)[O-])c3)C=C2)c2ccc(O)cc2S(=O)(=O)[O-])cc1.[Na+].[Na+]` [FD & C Green #3], the “staining of the selected vascular distribution of the brain” value (rat brain) is listed as “clearly stained both on the cortical surface”, the “staining of the selected vascular distribution of the brain” value (rat brain; listed as FD&C Green #3) is listed as “good staining of a selective vascular distribution” and the induction of sarcomas [3] is listed as “induction of sarcomas”.
For `NCc1ccc(-c2c3ccc(=O)cc-3oc3cc(O)ccc23)c(C(=O)O)c1` [5-(aminomethyl) fluorescein, hydrochloride], the Solubility [1, 4] is given as “DMF”.
For `CCCCc1ccc2n1[B-](F)(F)[N+]1=C(CCCCCCCCC(=O)O)C=CC1=C2` [C4-BODIPY ® (500/510) C9, 5-butyl-4,4-difluoro-4-bora-3a,4a-diaza-s-indacene-3-nonanoic acid], the Solubility [1, 5] is listed as “CDs”.
In the case of `C=CCC1(C(C)C#CCC)C(=O)N=C(O)N(C)C1=O` (racemic) [Brevital®, Methohexital Sodium; 2,4,6 (1H, 3H, 5H) Pyrimidinetrione, 1-methyl-5-(1-methyl-2-pentynyl)-5-(2-propenyl)-, (±)-, monosodium salt], the “duration of temporary neurological deficits after infusion” value (brain parenchyma) is listed as “resolve back to baseline within several minutes”.
For `CCCCCCCCCCCC(=O)Nc1ccc(-c2c3ccc(=O)cc-3oc3cc(O)ccc23)c(C(=O)O)c1` [5-dodecanoylamino-fluorescein], the Solubility [1, 5] is listed as “CDs”.
In the case of “FLUO-RGGRLSYSRRRESTSTGR (not fully specified (N-terminus); printed as FLUO-RGGRLSYSRRRESTSTGR) [FLUO-L-SynB1]”, the Solubility [1, 4] is given as “Phosphate”.
In the case of `CC1=CC(C)=[N+]2C1=Cc1c(C)cc(C)n1[B-]2(F)F` [Tetramethyl- BODIPY ® (505/515), 4,4-difluoro-1,3,5,7-tetramethyl-4-bora-3a,4a-diaza-s-indacene], the Solubility [1, 5] is listed as “Cyclodextrins (CD)”.
